Experimental data reported in patent publication US8722910B2, “Diyne compositions” (Evolva AG, priority 2009, dated 2014).
Values after ≈ are worked out from the molar mass of the structure shown. Where two headings read alike, the source gives them in different places.

What was measured:
C. glabrata ATCC-90030 = test: MIC versus reference Candida strains (broth micro dilution); design: MICs (100% inhibition): unit not given beside the values; conditions: for MIC: Nakaseomyces glabratus
Uncinula necator = test: Leaf disk assay; conditions: Uncinula necator (leaf disc assay)
Procedure: Leaf disk assay was carried out by the cavity well plate method for powdery mildew disease of grapes. Leaf disks of 14 mm in diameter were cut with a cork borer from the healthy leaves (second and third from the tip) of grapevine plants, and were dipped in 100 μl of each test compound at different concentrations for two minutes, as in treatment details shown below. The control leaf disks were dipped only in sterile water for two minutes. The compound treated leaf disks were placed, abaxial side up, in TC-24 well plates containing water agar medium. The disks were inoculated by placing 20 μl of inoculum (1-5×10^6 spores/ml) on the centre of the disk. After inoculation, the cavity well plates were incubated at 20° C. for 10 days. After incubation, the powdery mildew lesions on the leaf disks were rated to 0-9 scale, in which, 0 was no visible symptoms and 9 represented more than 50% leaf area with mildew growth/lesion. Percent disease index (PDI) was calculated as follows: […]
After the observation, the conidia were washed from the leaf disks in known volume of a fixative solution of ethanol-formaldehyde-acetic acid (90:5:5, v/v/v) and counted with a hemocytometer.

C. tropicalis ATCC-750 = test: MIC versus reference Candida strains (broth micro dilution); design: MICs (100% inhibition): unit not given beside the values; conditions: for MIC: Candida tropicalis
[1] = system: Colletotrichum gloeosporioides; test: Paper disc in the path of pathogen growth, growth and sporulation; type: cell-based; conditions: compound on sterile paper disc
C. krusei ATCC-6258 = test: MIC versus reference Candida strains (broth micro dilution); design: MICs (100% inhibition): unit not given beside the values; conditions: for MIC: Pichia kudriavzevii
[2] = system: Colletotrichum gloeosporioides (chili strain); test: In vitro mycelial growth inhibition, poisoned plate; type: cell-based; conditions: 5 μg/ml
Procedure: (§1) Growth of fungi was carried out in potato dextrose agar media at […], and test compound was added at different concentrations and at pH 5.8 for compound X″ and at pH 7.0 for its potassium salt, compound XII″, with a water control instead of test compound. Radial mycelial growth was measured at regular intervals 4, 8, 12 and 16 days for slow growing fungi and at 3, 6 and 8 days for fast growing fungi. When the mycelia reached the end of the plate, measurements were stopped. Morphological changes in the hyphal growth and sporulation patterns were also observed. For dose response studies a range of concentrations and a range of inhibition obtained falling below and above 50% inhibition (see Table 23 below)

Alternaria solani = test: as above; type: cell-based; conditions: 50 μg/ml
Procedure: as §1

Botrytis cinerea [3] = test: as above; type: cell-based; conditions: 2.5 μg/ml
Procedure: as §1

[4] = system: Colletotrichum gloeosporioides (mango strain); test: as above; type: cell-based; conditions: 5 μg/ml
Procedure: as §1

[5] = system: C. parapsilosis ATCC-90018; test: MIC versus reference Candida strains (broth micro dilution); design: MICs (100% inhibition): unit not given beside the values; conditions: for MIC: Lodderomyces parapsilosis
C. albicans ATCC-24433 = test: as above; design: MICs (100% inhibition): unit not given beside the values; conditions: for MIC: Candida albicans
C. albicans SC5314 = test: as above; type: cell-based
Puccinia arachidis = test: Leaf disk assay; conditions: Puccinia arachidis (leaf disc assay)
C. albicans ATCC-90028 = test: MIC versus reference Candida strains (broth micro dilution); design: MICs (100% inhibition): unit not given beside the values; conditions: for MIC: Candida albicans
Botrytis cinerea [6] = test: Changes in the hyphal tips; type: cell-based; conditions: compound in the media, 2 μg/ml
Text: Apical dominance is an important criterion for growth of hyphae of fungi: at the apical tip of the mycelia branching is not seen near the growing tip. Apical dominance is maintained but branching of hyphae will start at sub-apical point, a distance away from the growth point. Under abnormal conditions of stress, apical dominance is lost, extensive branching begins, resulting in the growth of the fungal mycelia being arrested. When the test compound is incorporated in the media in which the fungi is present, hyphal tip splitting and branching is seen with loss of apical dominance and polarity. […] Hyphae from the inoculated disc start growing against gravity and are thicker than the normal hyphae seen in the control (the two upper pictures).

M. grisea = type: cell-based; conditions: sterile water with different concentrations of test compound
[7] = system: C. parapsilosis ATCC-22019; test: MIC versus reference Candida strains (broth micro dilution); design: MICs (100% inhibition): unit not given beside the values; conditions: for MIC: Lodderomyces parapsilosis
Plasmopara viticola = type: cell-based; design: dose or concentration left out as unconfirmed; conditions: Plasmopara viticola (spore germination)
Magnaporthe grisea = test: microbe, parasite or virus in culture; type: cell-based; conditions: Pyricularia oryzae, read-out: % Mycelial growth Inhibition
Macrophomina phaseolina = test: In vitro mycelial growth inhibition, poisoned plate; type: cell-based; conditions: 100 μg/ml
[8] = system: Botryodiplodia theobromae; test: as above; type: cell-based; conditions: Lasiodiplodia theobromae, 50 μg/ml
Pythium aphanidermatum = test: as above; type: cell-based; conditions: 50 μg/ml
Fusarium oxysporum = test: Mycelial growth inhibition, disc diffusion assay; type: cell-based
Sclerotium rolfsii = test: In vitro mycelial growth inhibition, poisoned plate; type: cell-based; conditions: Agroathelia rolfsii, 50 μg/ml
Fusarium verticillioides = test: as above; type: cell-based; conditions: 50 μg/ml
Rhizoctonia solani = test: as above; type: cell-based; conditions: 50 μg/ml

Compound: O=C([O-])CCCCCCCCCC#CC#Cc1ccco1.[K+] [Compound XII″, Potassium 14-(furan-2-yl)tetradeca-11,13-diynoate]
- MIC (C. glabrata ATCC-90030; ATCC90030): 0.32 µg/mL
- Reduction in % disease index/germination (Uncinula necator; 10 μg/ml): 65%
- Reduction in % disease index/germination (Uncinula necator; 20 μg/ml): 100%
- MIC (C. tropicalis ATCC-750; ATCC750): 0.01 µg/mL
- growth of the mycelia [1]: the growth of the mycelia is arrested
- sporulation around the loaded disc [1]: no sporulation observed
- MIC (C. krusei ATCC-6258; ATCC6258): 0.64 µg/mL
- inhibition at 5 µg/mL [2]: 10%
- inhibition at 50 µg/mL (Alternaria solani): 42%
- inhibition at 2.5 µg/mL (Botrytis cinerea [3]): 76%
- inhibition at 5 µg/mL [4]: 28%
- MIC ([5]; ATCC90018): 5.12 µg/mL
- MIC (C. albicans ATCC-24433; ATCC24433): 0.01 µg/mL
- MIC (C. albicans SC5314): 0.01 µg/mL
- Reduction in % disease index/germination (Puccinia arachidis; 10 μg/ml): 67%
- Reduction in % disease index/germination (Puccinia arachidis; 20 μg/ml): 75%
- MIC (C. albicans ATCC-90028; ATCC90028): 0.01 µg/mL
- toxicity to the fungus, hyphal changes (Botrytis cinerea [6]): toxic to the fungus Botrytis cinerea
- spores that did not germinate (M. grisea): more than 50%
- MIC ([7]; ATCC22019): > 10.2 µg/mL
- Reduction in % disease index/germination (Plasmopara viticola): 93%
- inhibition at 5 µg/mL (Magnaporthe grisea): 27%

Compound: O=C(O)CCCCCCCCCC#CC#Cc1ccco1 [Compound X″]
- MIC breakpoints (C. glabrata ATCC-90030; C. glabrata ATCC 90030, CLSI M27-A3, growth inhibition of 100%, 35° C., 24 hrs): 2.56 µg/mL (≈ 8.94 µM)
- MICs (100% inhibition) (C. glabrata ATCC-90030; C. glabrata ATCC 90030, NCCLS M27A, 35° C., 24 hrs): 2560
- MIC (C. glabrata ATCC-90030; ATCC90030, read-out: minimal inhibitory concentrations): 2.56 µg/mL (≈ 8.94 µM)
- MIC breakpoints (C. tropicalis ATCC-750; C. tropicalis ATCC 750, CLSI M27-A3, growth inhibition of 100%, 35° C., 24 hrs): 0.08 µg/mL (≈ 0.279 µM)
- MICs (100% inhibition) (C. tropicalis ATCC-750; C. tropicalis ATCC 750, NCCLS M27A, 35° C., 24 hrs): 80
- MIC (C. tropicalis ATCC-750; ATCC750, read-out: minimal inhibitory concentrations): 0.08 µg/mL (≈ 0.279 µM)
- inhibition at 100 µg/mL (Macrophomina phaseolina): 15%
- inhibition at 50 µg/mL [8]: 15%
- % Mycelial Growth Inhibition (Pythium aphanidermatum): No inhibition
- MIC breakpoints (C. krusei ATCC-6258; C. krusei ATCC 6258, CLSI M27-A3, growth inhibition of 100%, 35° C., 24 hrs): 1.28 µg/mL (≈ 4.47 µM)
- MICs (100% inhibition) (C. krusei ATCC-6258; C. krusei ATCC 6258, NCCLS M27A, 35° C., 24 hrs): 1280
- MIC (C. krusei ATCC-6258; ATCC6258, read-out: minimal inhibitory concentrations): 1.28 µg/mL (≈ 4.47 µM)
- MIC breakpoints ([5]; C. parapsilosis ATCC 90018, CLSI M27-A3, growth inhibition of 100%, 35° C., 24 hrs): >10.24 µg/mL
- MICs (100% inhibition) ([5]; C. parapsilosis ATCC 90018, NCCLS M27A, 35° C., 24 hrs): >10240
- MIC ([5]; ATCC90018, read-out: minimal inhibitory concentrations): > 10.2 µg/mL
- MIC breakpoints (C. albicans ATCC-24433; C. albicans ATCC 24433, CLSI M27-A3, growth inhibition of 100%, 35° C., 24 hrs): 0.02 µg/mL (≈ 0.0698 µM)
- MICs (100% inhibition) (C. albicans ATCC-24433; C. albicans ATCC 24433, NCCLS M27A, 35° C., 24 hrs): 20
- MIC (C. albicans ATCC-24433; ATCC24433, read-out: minimal inhibitory concentrations): 0.02 µg/mL (≈ 0.0698 µM)
- MIC breakpoints (C. albicans ATCC-90028; C. albicans ATCC 90028, CLSI M27-A3, growth inhibition of 100%, 35° C., 24 hrs): 0.02 µg/mL (≈ 0.0698 µM)
- MICs (100% inhibition) (C. albicans ATCC-90028; C. albicans ATCC 90028, NCCLS M27A, 35° C., 24 hrs): 20
- MIC (C. albicans ATCC-90028; ATCC90028, read-out: minimal inhibitory concentrations): 0.02 µg/mL (≈ 0.0698 µM)
- MIC breakpoints ([7]; C. parapsilosis ATCC 22019, CLSI M27-A3, growth inhibition of 100%, 35° C., 24 hrs): >10.24 µg/mL
- MICs (100% inhibition) ([7]; C. parapsilosis ATCC 22019, NCCLS M27A, 35° C., 24 hrs): >10240
- MIC ([7]; ATCC22019, read-out: minimal inhibitory concentrations): > 10.2 µg/mL
- % Mycelial Growth Inhibition (Fusarium oxysporum): No inhibition
- inhibition at 50 µg/mL (Sclerotium rolfsii): 5%
- inhibition at 50 µg/mL (Fusarium verticillioides): 14%
- inhibition at 50 µg/mL (Rhizoctonia solani): 19%
